Literature values in US9637731B2, “Heavy metal stabilization and methane inhibition during induced or naturally occurring reducing conditions in contaminated media” (Innovative Environmental Technologies, Inc., priority 2013, dated 2017).
pIC50: −log10 of the molar value.

Legend:
[1] = test system: F420-dependent NADP oxidoreductase enzyme; settings: 3D protein model
[2] = test system: pure methanogenic bacteria

Compound	methane formation (Methanobrevibacter)	concentration that completely inhibited growth (Methanobrevibacter; per ml of culture medium)	pIC50 (Methanobrevibacter; per ml of culture medium, read-out: concentration resulting in 50% inhibition of growth)	affinity for the model protein compared to the natural ligand F420 [1]	populations of the non-methanogens (non-methanogens)	growth and activity of pure methanogenic bacteria [2]	effect on cellulolytic bacteria (cellulolytic bacteria)
CC[C@H](C)C(=O)O[C@H]1C[C@@H](C)C=C2C=C[C@H](C)[C@H](CC[C@@H]3C[C@@H](O)CC(=O)O3)[C@H]21 [lovastatin, Lovastatin]	significantly inhibited	10 nmol/mL	5.40	more affinity	not affected	significantly reduced	without any negative effect
CC[C@H](C)C(=O)O[C@H]1CCC=C2C=C[C@H](C)[C@H](CC[C@@H]3C[C@@H](O)CC(=O)O3)[C@H]21 [compactin]	–	–	–	more affinity	–	–	–
